Data as given in PubChem BioAssay AID1259411 (Chemical Carcinogenesis Research Information System (CCRIS), 2018).
Activity calls are given as the source filed them. No rule for the calls is given here.

Tested on: rodent carcinogenicity bioassays, tumor incidence
Assay: CCRIS carcinogenicity studies
Summary of the method: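 NCI-built, expert-reviewed records of carcinogenicity and related test outcomes (mutagenicity, tumor promotion/inhibition) compiled from published and report sources, historical span 1985-2011, not updated.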

Compound: CC(O)CN(CC(C)O)N=O (configuration not stated)
- carcinogen call (Species: HAMSTER, Strain/Sex: SYRIAN/MALE,FEMALE, Route: SUBCUTANEOUS, Dose: 40 MG/KG IN SALINE ONCE, Tumor Site: Type of Lesion: PANCREAS: ADENOMA, ADENOCARCINOMA, INTRADUCTAL CARCINOMA): active; positive
- carcinogen call (Species: HAMSTER, Strain/Sex: SYRIAN/MALE, Route: SUBCUTANEOUS, Dose: 25, 125, 250 MG/KG 1/WK FOR LIFE, Dose: 25, 125, 250 MG/KG 1/WK FOR LIFE, Tumor Site: Type of Lesion: PANCREAS, NASAL CAVITY, LUNG, LIVER, TRACHEA, LARYNX, Tumor Site: Type of Lesion: PANCREAS, NASAL CAVITY, LUNG, LIVER, TRACHEA, LARYNX): active; positive
- carcinogen call (Species: HAMSTER, Strain/Sex: SYRIAN/MALE, Route: SUBCUTANEOUS, Dose: 250, 500, 1000 MG/KG IN OLIVE OIL 1/WK FOR 20 WK, Dose: 250, 500, 1000 MG/KG IN OLIVE OIL 1/WK FOR 20 WK, Tumor Site: Type of Lesion: PANCREAS: ADENOCARCINOMA): active; positive
- carcinogen call (Species: HAMSTER, Strain/Sex: SYRIAN/MALE, Route: SUBCUTANEOUS, Dose: 250 MG/KG IN OLIVE OIL 1/WK FOR 25 WK, Tumor Site: Type of Lesion: PANCREAS: ADENOCARCINOMA): active; positive
- carcinogen call (Species: MOUSE, Strain/Sex: ICR/FEMALE, Route: SUBCUTANEOUS, Dose: 0, 25, 50, 100 MG/KG BW ONCE ON DAYS 1 AND 8 OF AGE (STUDY DURATION: 50 WK), Dose: 0, 25, 50, 100 MG/KG BW ONCE ON DAYS 1 AND 8 OF AGE (STUDY DURATION: 50 WK), Tumor Site: Type of Lesion: LUNG: TUMOR, LIVER: TUMOR): active; positive
- carcinogen call (Species: MOUSE, Strain/Sex: ICR/MALE, Route: SUBCUTANEOUS, Dose: 0, 25, 50, 100 MG/KG BW ONCE ON DAYS 1 AND 8 OF AGE (STUDY DURATION: 50 WK), Dose: 0, 25, 50, 100 MG/KG BW ONCE ON DAYS 1 AND 8 OF AGE (STUDY DURATION: 50 WK), Tumor Site: Type of Lesion: LUNG: TUMOR, LIVER: TUMOR): active; positive
- carcinogen call (Species: MOUSE, Strain/Sex: STRAIN-DD/MALE, Route: ORAL, Dose: 100, 250, 500, 1000 PPM IN DRINKING WATER (DAILY INTAKE: 6.3-34.2 MG), Dose: 100, 250, 500, 1000 PPM IN DRINKING WATER (DAILY INTAKE: 6.3-34.2 MG), Tumor Site: Type of Lesion: LUNG: ADENOMA, ADENOCARCINOMA, LIVER: HEMANGIOMA, HEMANGIOENDOTHELIOMA, HEMANGIOENDOTHELIAL SARCOMA): active; positive
- carcinogen call (Species: RAT, Strain/Sex: SPRAGUE-DAWLEY/FEMALE, Route: ORAL, Dose: 106 MG/L IN DRINKING WATER 5 DAY/WK FOR 30 WK (TOTAL DOSE: 318 MG), Tumor Site: Type of Lesion: LIVER: HEPATOCELLULAR CARCINOMA, CHOLANGIOCARCINOMA, HEMANGIOENDOTHELIAL SARCOMA): active; positive
- carcinogen call (Species: RAT, Strain/Sex: SPRAGUE-DAWLEY/FEMALE, Route: ORAL, Dose: 108 MG/L IN DRINKING WATER 5 DAY/WK FOR 50 WK (TOTAL DOSE 540 MG), Tumor Site: Type of Lesion: NASAL TURBINATES: ADENOCARCINOMA, SQUAMOUS CELL CARCINOMA): active; positive
- carcinogen call (Species: RAT, Strain/Sex: WISTAR/MALE, Route: INTRAPERITONEAL, Dose: 3, 4 G/KG ONCE, Tumor Site: Type of Lesion: LUNG: ADENOMA, ADENOCARCINOMA): active; positive
- carcinogen call (Species: RAT, Strain/Sex: WISTAR/MALE, Route: ORAL, Dose: 100, 500 PPM IN DRINKING WATER FOR 25 WK, Tumor Site: Type of Lesion: LUNG: ADENOMA, ADENOCARCINOMA, SQUAMOUS CELL CARCINOMA): active; positive
- carcinogen call (Species: RAT, Strain/Sex: WISTAR/MALE, Route: ORAL, Dose: 100, 500 PPM IN DRINKING WATER FOR 52 WK, Tumor Site: Type of Lesion: LUNG: ADENOMA, ADENOCARCINOMA, SQUAMOUS CELL CARCINOMA, LIVER: HEMANGIOMA, HEPATOCELLULAR CARCINOMA): active; positive

Compound: O=C1C=Cc2cccc3cccc1c23
- carcinogen call (Species: MOUSE, Strain/Sex: ICR/FEMALE, Route: INTRAPERITONEAL, Dose: 0, 0.84, 2.1, 4.2 MG (TOTAL DOSES) ADMINISTERED TO NEWBORN MICE AS 1/7 ON DAY 1, 2/7 ON DAY 8 AND 4/7 ON DAY 15 (STUDY D, Dose: 0, 0.84, 2.1, 4.2 MG (TOTAL DOSES) ADMINISTERED TO NEWBORN MICE AS 1/7 ON DAY 1, 2/7 ON DAY 8 AND 4/7 ON DAY 15 (STUDY D): inactive; negative
- carcinogen call (Species: MOUSE, Strain/Sex: ICR/MALE, Route: INTRAPERITONEAL, Dose: 0, 0.84, 2.1, 4.2 MG (TOTAL DOSES) ADMINISTERED TO NEWBORN MICE AS 1/7 ON DAY 1, 2/7 ON DAY 8 AND 4/7 ON DAY 15 (STUDY D, Dose: 0, 0.84, 2.1, 4.2 MG (TOTAL DOSES) ADMINISTERED TO NEWBORN MICE AS 1/7 ON DAY 1, 2/7 ON DAY 8 AND 4/7 ON DAY 15 (STUDY D, Tumor Site: Type of Lesion: LUNG: TUMOR): active; positive

Compound: OCCN(CCO)C(=S)S
- carcinogen call (Species: MOUSE, Strain/Sex: B6AKF1/MALE, Route: GAVAGE/ORAL, Dose: 464 MG/KG FROM D 7-28 OF LIFE THEN 1112 MG/KG IN DIET, Tumor Site: Type of Lesion: LIVER: HEPATOMA): active; positive
- carcinogen call (Species: MOUSE, Strain/Sex: B6C3F1/MALE,FEMALE, Route: GAVAGE/ORAL, Dose: 464 MG/KG FROM D 7-28 OF LIFE THEN 1112 MG/KG IN DIET, Tumor Site: Type of Lesion: LIVER: HEPATOMA): active; positive
- carcinogen call (Species: RAT, Strain/Sex: STRAIN-CD/MALE,FEMALE, Route: ORAL, Dose: 500, 1000 PPM IN DIET FOR 78 WK): inactive; negative

Compound: C=CC(=C)CCC=C(C)C
- carcinogen call (Species: Mouse, Strain/Sex: B6C3F1 / Female (50/Group), Route: Oral, Dose: 0, 0.25, 0.5, 1 g/kg in corn oil, by gavage, 5 d/wk for 104-105 wk, Dose: 0, 0.25, 0.5, 1 g/kg in corn oil, by gavage, 5 d/wk for 104-105 wk): inactive; negative. (authors describe results as equivocal based on incidences of hepatoce
- carcinogen call (Species: Mouse, Strain/Sex: B6C3F1 / Male (50/Group), Route: Oral, Dose: 0, 0.25, 0.5, 1 g/kg in corn oil, by gavage, 5 d/wk for 104-105 wk, Dose: 0, 0.25, 0.5, 1 g/kg in corn oil, by gavage, 5 d/wk for 104-105 wk, Tumor Site: Type of Lesion: Liver: hepatocellular adenoma (26/50, 41/50, 43/50), hepatocellular carcinoma (14/50, 20/50, 28/50), hepatocellular aden, Tumor Site: Type of Lesion: Liver: hepatocellular adenoma (26/50, 41/50, 43/50), hepatocellular carcinoma (14/50, 20/50, 28/50), hepatocellular aden): active; positive (authors describe as clear evidence)
- carcinogen call (Species: Rat, Strain/Sex: F344/N / Female (50/Group), Route: Oral, Dose: 0, 0.25, 0.5, 1 g/kg in corn oil, by gavage, 5 d/wk for 105 wk, Dose: 0, 0.25, 0.5, 1 g/kg in corn oil, by gavage, 5 d/wk for 105 wk): inactive; negative. (authors describe findings as equivocal based on renal tubule adenoma
- carcinogen call (Species: Rat, Strain/Sex: F344/N / Male (50/Group), Route: Oral, Dose: 0, 0.25, 0.5, 1 g/kg in corn oil, by gavage, 5 d/wk for 105 wk, Dose: 0, 0.25, 0.5, 1 g/kg in corn oil, by gavage, 5 d/wk for 105 wk, Tumor Site: Type of Lesion: Kidney: renal tubule adenoma (standard evaluation - 0/50, 4/50, 8/50, standard and extended evaluations combined - 0/50): active; positive (authors describe as clear evidence)

Compound: [O]=[Cr](=[O])([OH])[O][Cr](=[O])(=[O])[OH]
- carcinogen call (Species: Mouse, Strain/Sex: B6C3F1/Female, Route: Oral, Dose: 0, 14.3, 57.3, 172, 516 mg/l of water, in drinking water for 2 yr (average daily dose of 0, 1.1, 3.9, 9, and 25 mg/kg), Tumor Site: Type of Lesion: Small intestine (duodenum, jejunum, ileum): Adenomas and carcinomas): active; positive, authors describe as clear evidence of carcinogenic activity
- carcinogen call (Species: Mouse, Strain/Sex: B6C3F1/Male, Route: Oral, Dose: 0, 14.3, 28.6, 85.7, 257.4 mg/l of water, in drinking water for 2 yr (average daily dose of 0, 1.1, 2.6, 7, and 17 mg/kg, Tumor Site: Type of Lesion: Small intestine (duodenum, jejunum, ileum): Adenomas and carcinomas): active; positive, authors describe as clear evidence of carcinogenic activity
- carcinogen call (Species: Rat, Strain/Sex: F344/N/Female, Route: Oral, Dose: 0, 14.3, 57.3, 172, 516 mg/l of water, in drinking water for 2 yr (average daily dose of 0, 0.7, 2.7, 7, and 20 mg/kg), Tumor Site: Type of Lesion: Mouth and tongue: Squamous cell papilloma and carcinoma): active; positive, authors describe as clear evidence of carcinogenic activity
- carcinogen call (Species: Rat, Strain/Sex: F344/N/Male, Route: Oral, Dose: 0, 14.3, 57.3, 172, 516 mg/l of water, in drinking water for 2 yr (average daily dose of 0, 0.6, 2.2, 6, and 17 mg/kg), Tumor Site: Type of Lesion: Mouth and tongue: Squamous cell papilloma and carcinoma): active; positive, authors describe as clear evidence of carcinogenic activity

Compound: C#C[C@]1(OC(C)=O)CC[C@H]2[C@@H]3CCC4=CC(=O)CC[C@@H]4[C@H]3CC[C@@]21C
- carcinogen call (Species: MOUSE, Route: ORAL, Tumor Site: Type of Lesion: LIVER, PITUITARY GLAND): active; positive
- carcinogen call (Species: RAT, Route: ORAL, Tumor Site: Type of Lesion: LIVER): active; positive
